From patent EP4032543A1, “PEPTIDES FROM THE SEQUENCE OF THE COMPLEMENT FACTOR D FOR MEDICAL USE, ESPECIALLY FOR THE TREATMENT OF EBV-ASSOCIATED DISEASES” (Fraunhofer-Gesellschaft zur Förderung der angewandten …, priority 2021, dated 2022) come the findings set out here.

This assay relates to latently EBV-infected Raji-reporter cells. As to the kind of experiment: Induction of lytic EBV-infection after proviral treatment (expression of ZEBRA). As to conditions: EBV-positive Raji-reporter cells, 24 hours induction, related to untreated control; PMA at 20 ng/ml; Figure 1. The class given is cell-based. The method, then: The relative induction of the EBV lytic cycle in latently EBV-infected Raji-reporter cells was tested using the human peptide mixture comprising the two complement factor D derived peptide sequences SEQ ID No. 3 and SEQ ID No. 4 (CFD+ peptide mixture) in comparison to the known exogenous proviral substance phorbol-12-myristate13-acetate (PMA), each related to the untreated control. The EBV-positive Raji-reporter cells were treated with the human peptide mixture or with the 20 ng/ml PMA. In a control, cells were not treated with a proviral substance. After 24 hours induction the lytic EBV-infection was compared between treated and non-treated cells via expression of the lytic EBV-immediate early protein ZEBRA. […] Without being bound to the theory, it can be assumed that the pure peptides will result in an even better induction.

For `CCCCCCCCCCCCCC(=O)O[C@@H]1[C@@H](C)[C@@]2(O)[C@@H](C=C(CO)C[C@]3(O)C(=O)C(C)=C[C@@H]23)[C@@H]2C(C)(C)[C@]12OC(C)=O` [PMA, phorbol-12-myristate13-acetate], the “induction of lytic EBV-infection via expression of the lytic EBV-immediate early protein ZEBRA” value was “resulted in the induction of lytic EBV-infection”.
